The values that follow come from ChEMBL document CHEMBL3393000, “Synthesis and anticancer activity of some 8-substituted-7-methoxy-2H-chromen-2-one derivatives toward hepatocellular carcinoma HepG2 cells” (Eur J Med Chem, 2015).

For test [1], the system named is HepG2. The experiment in a line: Cytotoxicity against human HepG2 cells assessed as reduction in cell viability after 72 hrs by MTT assay. Format: functional, cell-based. The note with it: HepG2, 72 h.
For test [2], the target named is Telomerase reverse transcriptase (Homo sapiens) (UniProt O14746). The experiment in a line: Inhibition of telomerase in human HepG2 cells at 2 uM after 3 days by TRAP-ELISA method. It is filed as cell-based. Background: An ELISA detects its analyte on a solid surface through an enzyme-linked reagent.
Test [3] shares this target. The experiment in a line: Inhibition of telomerase in human HepG2 cells at 4 uM after 3 days by TRAP-ELISA method. It is filed as cell-based.
The target is the same in test [4]. The experiment in a line: Inhibition of telomerase in human HepG2 cells at 1 uM after 1 day by TRAP-ELISA method. Format: cell-based.
Test [5] has the same target. In words: Inhibition of telomerase in human HepG2 cells at 4 uM after 2 days by TRAP-ELISA method. Format: cell-based.
Test [6] shares this target. In words: Inhibition of telomerase in human HepG2 cells at 1 to 4 uM after 1 to 3 days by TRAP-ELISA method. It is filed as cell-based.
Test [7] has the same target. In words: Inhibition of telomerase in human HepG2 cells at 2 uM after 2 days by TRAP-ELISA method. It is filed as cell-based.
The target is the same in test [8]. In words: Inhibition of telomerase in human HepG2 cells at 2 uM after 1 day by TRAP-ELISA method. Format: cell-based.
Test [9] has the same target. The experiment in a line: Inhibition of telomerase in human HepG2 cells at 1 uM after 2 days by TRAP-ELISA method. Format: cell-based.
The target is the same in test [10]. The experiment in a line: Inhibition of telomerase in human HepG2 cells at 4 uM after 1 day by TRAP-ELISA method. It is filed as cell-based.
For test [11] the target is unchanged. The experiment in a line: Inhibition of telomerase in human HepG2 cells at 1 uM after 3 days by TRAP-ELISA method. Format: cell-based.
The test system of test [12] is HepG2. In words: Induction of apoptosis in human HepG2 cells at 0.01 umol/ml after 24 hrs by annexin V-FITC/propidium iodide staining based flow cytometry (reference value: 0.54%). It is filed as functional. (In general: A flow cytometer gives signals particle by particle.)
The test system of test [13] is HepG2. In words: Induction of apoptosis in human HepG2 cells at 0.01 to 0.08 umol/ml after 24 hrs by annexin V-FITC/propidium iodide staining based flow cytometry. It is filed as functional, cell-based.
The subject of test [14] is HepG2. In words: Induction of apoptosis in human HepG2 cells at 0.08 umol/ml after 24 hrs by annexin V-FITC/propidium iodide staining based flow cytometry (reference value: 0.54%). Format: functional.
In test [15] the test system is HepG2. In words: Induction of apoptosis in human HepG2 cells at 0.04 umol/ml after 24 hrs by annexin V-FITC/propidium iodide staining based flow cytometry (reference value: 0.54%). It is filed as functional.
For test [16], the system named is HepG2. In words: Induction of apoptosis in human HepG2 cells at 0.02 umol/ml after 24 hrs by annexin V-FITC/propidium iodide staining based flow cytometry (reference value: 0.54%). It is filed as functional.

Telomerase reverse transcriptase (Homo sapiens), sequence (O14746 whole entry): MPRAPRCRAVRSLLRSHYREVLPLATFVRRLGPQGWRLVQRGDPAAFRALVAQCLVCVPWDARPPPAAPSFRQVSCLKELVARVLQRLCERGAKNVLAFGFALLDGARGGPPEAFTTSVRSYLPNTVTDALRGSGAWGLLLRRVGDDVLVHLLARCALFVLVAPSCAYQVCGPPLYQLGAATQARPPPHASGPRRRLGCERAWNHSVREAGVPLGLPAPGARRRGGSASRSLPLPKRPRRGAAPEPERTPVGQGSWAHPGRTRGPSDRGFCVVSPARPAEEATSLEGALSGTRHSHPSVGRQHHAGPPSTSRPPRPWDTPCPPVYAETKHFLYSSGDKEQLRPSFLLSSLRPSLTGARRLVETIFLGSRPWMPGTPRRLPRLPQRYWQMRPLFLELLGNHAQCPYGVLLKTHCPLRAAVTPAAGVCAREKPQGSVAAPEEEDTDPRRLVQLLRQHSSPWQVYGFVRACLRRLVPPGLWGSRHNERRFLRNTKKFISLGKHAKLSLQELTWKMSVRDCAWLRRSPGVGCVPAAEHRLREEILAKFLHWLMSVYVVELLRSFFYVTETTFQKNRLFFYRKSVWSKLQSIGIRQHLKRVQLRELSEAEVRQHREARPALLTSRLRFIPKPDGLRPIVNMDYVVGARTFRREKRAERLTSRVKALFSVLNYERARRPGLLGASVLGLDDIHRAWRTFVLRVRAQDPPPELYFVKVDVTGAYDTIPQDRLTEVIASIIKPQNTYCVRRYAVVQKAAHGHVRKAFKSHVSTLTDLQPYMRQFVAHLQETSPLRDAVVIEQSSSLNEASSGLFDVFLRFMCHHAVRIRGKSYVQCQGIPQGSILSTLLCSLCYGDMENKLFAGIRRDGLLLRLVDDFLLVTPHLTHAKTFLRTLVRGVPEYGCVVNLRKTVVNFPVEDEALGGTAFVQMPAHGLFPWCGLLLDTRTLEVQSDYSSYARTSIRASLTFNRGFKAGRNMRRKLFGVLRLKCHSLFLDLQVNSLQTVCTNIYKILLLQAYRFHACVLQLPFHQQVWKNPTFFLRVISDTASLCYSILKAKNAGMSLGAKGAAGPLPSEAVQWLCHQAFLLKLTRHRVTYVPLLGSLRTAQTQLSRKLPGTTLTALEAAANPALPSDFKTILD

In the case of `COc1ccc2ccc(=O)oc2c1C1=NN(C(C)=O)C(c2ccc(C)cc2)C1` (configuration not stated), in the test with HepG2 [1], the IC50 stood at 0.05 µM.

Regarding `COc1ccc2ccc(=O)oc2c1C(/C=C/c1ccc(SC)cc1)=N/NC(N)=O`, the IC50 in the test on HepG2 [1] turned out to be 0.099 µM.

`COc1ccc2ccc(=O)oc2c1C1=NN(c2ccccc2)C(c2cccs2)C1` (configuration not stated): the inhibition in [2] is 40.3%; in [3] it was 68.3%; in test [4], 16.8%; in test [5] it was 56.6%; in [6], “Dose-dependent effect”; in [7], 30%. Moreover, the inhibition in test [8] was 20.1%; in test [9], 19.4%; in test [10] it was 28%; in [11] it was 26.1%. Besides, the IC50 in the test on HepG2 [1] worked out at 0.015 µM.

Consider `COc1ccc2ccc(=O)oc2c1C1=NN(C(C)=O)C(c2cccs2)C1` (configuration not stated), for which, in the test with HepG2 [1], the half-maximal inhibitory concentration (IC50) was determined as 0.075 µM.

Turning to `CN[C@@H]1C[C@H]2O[C@@](C)([C@@H]1OC)n1c3ccccc3c3c4c(c5c6ccccc6n2c5c31)C(=O)NC4`, the inhibition in [2] was 28.7%; in [3], 56.5%; in test [4], 10.7%; in test [5] it was 40.1%; in test [6], “Dose-dependent effect”; in [7], 18.9%. The inhibition in test [8] turned out to be 12.7%; in [9], 11.3%; in test [10], 30.1%; in test [11], 15.4%.

For `COc1ccc2ccc(=O)oc2c1C1=NN(C(N)=O)C(c2ccc(C(F)(F)F)cc2)C1` (configuration not stated), in the test on HepG2 [1], the concentration for half-maximal inhibition (IC50) came to 0.096 µM.

Regarding `COc1cccc2c1C(=O)c1c(O)c3c(c(O)c1C2=O)C[C@@](O)(C(=O)CO)C[C@@H]3O[C@H]1C[C@H](N)[C@H](O)[C@H](C)O1` [DOXORUBICIN], in the test on HepG2 [1], the IC50 came to 0.63 µM.

As to `COc1ccc2ccc(=O)oc2c1C(/C=C/c1ccc(C)cc1)=N/NC(N)=O`, the half-maximal inhibitory concentration (IC50) with HepG2 [1] is 0.093 µM.

Consider `COc1ccc2ccc(=O)oc2c1C1=NNC(c2ccc(C(F)(F)F)cc2)C1` (configuration not stated), for which the inhibition is 42% in test [2]; 71.1% in [3]; 17.5% in test [4]; 59% in test [5]; “Dose-dependent effect” in test [6]; 31.2% in [7]. For the same molecule, the inhibition in [8] is 21%; in test [9], 20.2%; in test [10], 29.2%; in test [11], 27.2%. Further, the IC50 with HepG2 [1] worked out at 0.013 µM.

Consider `COc1ccc2ccc(=O)oc2c1C1=NN(C(C)=O)C(c2ccc(SC)cc2)C1` (configuration not stated), for which the IC50 in the test on HepG2 [1] turned out to be 0.042 µM.

As for `COc1ccc2ccc(=O)oc2c1C1=NN(C(N)=O)C(c2cccs2)C1` (configuration not stated), the IC50 in the test on HepG2 [1] stood at 0.026 µM.

As for `COc1ccc2ccc(=O)oc2c1C1=NN(C(N)=O)C(c2ccccc2)C1` (configuration not stated), the IC50 in the test on HepG2 [1] is 0.09 µM.

Turning to `COc1ccc2ccc(=O)oc2c1C(/C=C/c1ccccc1)=N/NC(N)=O`, the 50% inhibitory concentration (IC50) with HepG2 [1] amounted to 0.082 µM.

Take `COc1ccc2ccc(=O)oc2c1C(/C=C/c1cccs1)=N/NC(N)=O`: the IC50 with HepG2 [1] was 0.075 µM.

As to `COc1ccc2ccc(=O)oc2c1CC=C(C)C` [OSTHOLE], the half-inhibitory concentration (IC50) in the test with HepG2 [1] was found to be 161 µM.

As for `COc1ccc2ccc(=O)oc2c1C1=NN(c2ccccc2)C(c2ccc(C)cc2)C1` (configuration not stated), the IC50 with HepG2 [1] is 0.051 µM.

With `COc1ccc2ccc(=O)oc2c1C1=NN(c2ccccc2)C(c2ccc(SC)cc2)C1` (configuration not stated), the half-inhibitory concentration (IC50) in the test with HepG2 [1] turned out to be 0.078 µM.

Turning to `COc1ccc2ccc(=O)oc2c1C(/C=C/c1ccc(C(F)(F)F)cc1)=N/NC(N)=O`, in the test on HepG2 [1], the IC50 is 0.096 µM.

Regarding `COc1ccc2ccc(=O)oc2c1C1=NNC(c2ccccc2)C1` (configuration not stated), the half-maximal inhibitory concentration (IC50) in the test on HepG2 [1] turned out to be 0.048 µM.

On to `COc1ccc2ccc(=O)oc2c1C1=NN(C(N)=O)C(c2ccc(SC)cc2)C1` (configuration not stated), for which the inhibition in test [2] is 36.5%; in [3] it was 61.7%; in test [4], 15.2%; in test [5], 51.2%; in [6], “Dose-dependent effect”; in test [7], 27.1%. Also, the inhibition was 18.2% in test [8], 17.6% in test [9], 25.3% in test [10] and 23.6% in test [11]. Besides, the half-inhibitory concentration (IC50) in the test on HepG2 [1] was found to be 0.018 µM.

Regarding `COc1ccc2ccc(=O)oc2c1C1=NN(C(C)=O)C(c2ccccc2)C1` (configuration not stated), in the test with HepG2 [1], the IC50 was 0.052 µM.

Regarding `COc1ccc2ccc(=O)oc2c1C1=NNC(c2ccc(C)cc2)C1` (configuration not stated), the IC50 in the test with HepG2 [1] came out at 0.043 µM.

In the case of `COc1ccc2ccc(=O)oc2c1C1=NN(C(C)=O)C(c2ccc(C(F)(F)F)cc2)C1` (configuration not stated), the IC50 in the test on HepG2 [1] was determined as 0.08 µM.

Consider `COc1ccc2ccc(=O)oc2c1C1=NNC(c2cccs2)C1` (configuration not stated), for which the inhibition in test [2] was 44.6%; in test [3], 75.5%; in test [4], 18.6%; in test [5], 62.6%; in test [6], “Dose-dependent effect”; in test [7], 33.1%. The inhibition turned out to be 22.3% in test [8], 21.5% in test [9], 31% in test [10] and 28.9% in test [11]. In addition, the 50% inhibitory concentration (IC50) in the test with HepG2 [1] came out at 0.011 µM.

Take `COc1ccc2ccc(=O)oc2c1C1=NN(c2ccccc2)C(c2ccc(C(F)(F)F)cc2)C1` (configuration not stated): the IC50 with HepG2 [1] stood at 0.038 µM.

On to `COc1ccc2ccc(=O)oc2c1C1=NNC(c2ccc(SC)cc2)C1` (configuration not stated), for which the inhibition was 46.4% in [2]; 78.6% in test [3]; 19.4% in [4]; 65.2% in test [5]; “Dose-dependent effect” in test [6]; 34.5% in test [7]. The inhibition in test [8] came out at 23.2%; in test [9], 22.4%; in test [10], 32.3%; in test [11] it was 30.1%. In addition, the Activity is 25.45% in the test with HepG2 [12]; “Dose-dependent effect” in the test with HepG2 [13]; 46.85% with HepG2 [14]; 40.96% in the test on HepG2 [15]; 35% in the test on HepG2 [16]. The IC50 with HepG2 [1] came out at 0.01 µM.

Take `COc1ccc2ccc(=O)oc2c1C1=NN(C(N)=O)C(c2ccc(C)cc2)C1` (configuration not stated): the concentration for half-maximal inhibition (IC50) with HepG2 [1] came out at 0.046 µM.

As for `COc1ccc2ccc(=O)oc2c1C1=NN(c2ccccc2)C(c2ccccc2)C1` (configuration not stated), the IC50 in the test on HepG2 [1] amounted to 0.073 µM.

For orientation: IC50 means the concentration that inhibits the measured activity by half. For orientation: inhibition means the drop in the measured response relative to a control, in per cent.
